Measured values published in PubChem BioAssay (NCI).
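Briefly, cells in 96-well plates were exposed to five compound concentrations for 48 h, and endpoints were estimated by linear interpolation. GI50: concentration for 50% inhibition of growth. Definition used: TGI = concentration required for complete inhibition of growth.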

Key:
Assay in all cases: DTP human tumour cell line panel, 48 h
MDA-MB-435 = system: MDA-MB-435
NCI-H460 lung = system: NCI-H460 lung
K-562 leukemia = system: K-562 leukemia
HL-60(TB) leukemia = system: HL-60(TB) leukemia
HCT-116 colon = system: HCT-116 colon
OVCAR-4 ovarian = system: OVCAR-4 ovarian
MCF7 breast = system: MCF7 breast
NCI-H23 lung = system: NCI-H23 lung
M14 melanoma = system: M14 melanoma
CCRF-CEM leukemia = system: CCRF-CEM leukemia
BT-549 breast = system: BT-549 breast
MDA-MB-231 breast = system: MDA-MB-231 breast
SK-OV-3 ovarian = system: SK-OV-3 ovarian
U251 CNS = system: U251 CNS
NCI-H226 lung = system: NCI-H226 lung
UACC-62 melanoma = system: UACC-62 melanoma
OVCAR-8 ovarian = system: OVCAR-8 ovarian
UACC-257 melanoma = system: UACC-257 melanoma
HCC-2998 colon = system: HCC-2998 colon
RXF 393 renal = system: RXF 393 renal
DU-145 prostate = system: DU-145 prostate
SK-MEL-2 melanoma = system: SK-MEL-2 melanoma
SF-539 CNS = system: SF-539 CNS
SNB-75 CNS = system: SNB-75 CNS
A549 NSCLC = system: A549 NSCLC
ACHN renal = system: ACHN renal
KM12 colon = system: KM12 colon
SK-MEL-5 melanoma = system: SK-MEL-5 melanoma
RPMI-8226 leukemia = system: RPMI-8226 leukemia
SW-620 colon = system: SW-620 colon
MALME-3M melanoma = system: MALME-3M melanoma
OVCAR-5 ovarian = system: OVCAR-5 ovarian
MOLT-4 leukemia = system: MOLT-4 leukemia
HOP-62 NSCLC = system: HOP-62 NSCLC
HS 578T breast = system: HS 578T breast
A498 renal = system: A498 renal
EKVX NSCLC = system: EKVX NSCLC
T-47D breast = system: T-47D breast
SK-MEL-28 melanoma = system: SK-MEL-28 melanoma
SF-268 CNS = system: SF-268 CNS
SF-295 CNS = system: SF-295 CNS
HT29 colon = system: HT29 colon
TK-10 renal = system: TK-10 renal
OVCAR-3 ovarian = system: OVCAR-3 ovarian
UO-31 renal = system: UO-31 renal
786-0 renal = system: 786-0 renal
PC-3 prostate = system: PC-3 prostate
LOX IMVI melanoma = system: LOX IMVI melanoma
HCT-15 colon = system: HCT-15 colon
HOP-92 NSCLC = system: HOP-92 NSCLC
COLO 205 colon = system: COLO 205 colon
SR leukemia = system: SR leukemia
SN12C renal = system: SN12C renal
IGROV1 ovarian = system: IGROV1 ovarian
NCI/ADR-RES ovarian = system: NCI/ADR-RES ovarian
SNB-19 CNS = system: SNB-19 CNS
CAKI-1 renal = system: CAKI-1 renal
NCI-H522 lung = system: NCI-H522 lung

## COc1ccc(SC2c3ccc(C)cc3Oc3nc(N)c(C#N)c(N)c32)cc1 (configuration not stated)
MDA-MB-435
  GI50: 1690 nM
  TGI: 3160 nM
NCI-H460 lung
  GI50: 2130 nM
  TGI: 4360 nM
K-562 leukemia
  GI50: 2660 nM
  TGI: 8440 nM
HL-60(TB) leukemia
  GI50: 1860 nM
  TGI: 3990 nM
HCT-116 colon
  GI50: 1820 nM
  TGI: 3370 nM
OVCAR-4 ovarian
  GI50: 1660 nM
  TGI: 3150 nM
MCF7 breast
  GI50: 1950 nM
  TGI: 4720 nM
NCI-H23 lung
  GI50: 1670 nM
  TGI: 3310 nM
M14 melanoma
  GI50: 1760 nM
  TGI: 3410 nM
CCRF-CEM leukemia
  GI50: 2850 nM
  TGI: 7670 nM
BT-549 breast
  GI50: 1560 nM
  TGI: 2900 nM
MDA-MB-231 breast
  GI50: 1810 nM
  TGI: 3280 nM
SK-OV-3 ovarian
  GI50: 1780 nM
  TGI: 3170 nM
U251 CNS
  GI50: 1810 nM
  TGI: 3220 nM
NCI-H226 lung
  GI50: 1750 nM
  TGI: 3220 nM
UACC-62 melanoma
  GI50: 1600 nM
  TGI: 2990 nM
OVCAR-8 ovarian
  GI50: 1640 nM
  TGI: 3060 nM
UACC-257 melanoma
  GI50: 1990 nM
  TGI: 3490 nM
HCC-2998 colon
  GI50: 1730 nM
  TGI: 3190 nM
RXF 393 renal
  GI50: 1650 nM
  TGI: 3010 nM
DU-145 prostate
  GI50: 1820 nM
  TGI: 3210 nM
SK-MEL-2 melanoma
  GI50: 1720 nM
  TGI: 3590 nM
SF-539 CNS
  GI50: 1640 nM
  TGI: 3000 nM
SNB-75 CNS
  GI50: 1460 nM
  TGI: 3210 nM
A549 NSCLC
  GI50: 2190 nM
  TGI: 4210 nM
ACHN renal
  GI50: 1760 nM
  TGI: 3150 nM
KM12 colon
  GI50: 1610 nM
  TGI: 3050 nM
SK-MEL-5 melanoma
  GI50: 1770 nM
  TGI: 3150 nM
RPMI-8226 leukemia
  GI50: 2470 nM
  TGI: 6560 nM
SW-620 colon
  GI50: 1950 nM
  TGI: 4080 nM
MALME-3M melanoma
  GI50: 1680 nM
  TGI: 3130 nM
OVCAR-5 ovarian
  GI50: 1740 nM
  TGI: 3350 nM
MOLT-4 leukemia
  GI50: 1960 nM
  TGI: 5610 nM
HOP-62 NSCLC
  GI50: 1710 nM
  TGI: 3180 nM
HS 578T breast
  GI50: 2270 nM
  TGI: 5540 nM
A498 renal
  GI50: 1910 nM
  TGI: 3440 nM
EKVX NSCLC
  GI50: 1730 nM
  TGI: 3200 nM
T-47D breast
  GI50: 1900 nM
  TGI: 4630 nM
SK-MEL-28 melanoma
  GI50: 1750 nM
  TGI: 3200 nM
SF-268 CNS
  GI50: 1620 nM
  TGI: 3040 nM
SF-295 CNS
  GI50: 1550 nM
  TGI: 2890 nM
HT29 colon
  GI50: 2310 nM
  TGI: 4830 nM
TK-10 renal
  GI50: 1740 nM
  TGI: 3120 nM
OVCAR-3 ovarian
  GI50: 1750 nM
  TGI: 3130 nM
UO-31 renal
  GI50: 1390 nM
  TGI: 2680 nM
786-0 renal
  GI50: 1650 nM
  TGI: 3010 nM
PC-3 prostate
  GI50: 1600 nM
  TGI: 3110 nM
LOX IMVI melanoma
  GI50: 1600 nM
  TGI: 3110 nM
HCT-15 colon
  GI50: 1720 nM
  TGI: 3300 nM
HOP-92 NSCLC
  GI50: 1840 nM
  TGI: 3550 nM

## COc1ccc2c(c1)CCc1[nH]nc(-c3cc(OC)c(OC)c(OC)c3)c1-2
MDA-MB-435
  GI50: < 10 nM
  TGI: < 10 nM
COLO 205 colon
  GI50: < 10 nM
  TGI: < 10 nM
NCI-H460 lung
  GI50: < 10 nM
  TGI: 2060 nM
K-562 leukemia
  GI50: < 10 nM
  TGI: > 100000 nM
HCT-116 colon
  GI50: < 10 nM
  TGI: 1160 nM
OVCAR-4 ovarian
  GI50: < 10 nM
  TGI: 56500 nM
SR leukemia
  GI50: < 10 nM
  TGI: 22900 nM
MCF7 breast
  GI50: < 10 nM
  TGI: 12900 nM
NCI-H23 lung
  GI50: < 10 nM
  TGI: 3530 nM
M14 melanoma
  GI50: < 10 nM
  TGI: 10900 nM
CCRF-CEM leukemia
  GI50: < 10 nM
  TGI: > 100000 nM
BT-549 breast
  GI50: < 10 nM
  TGI: 10600 nM
MDA-MB-231 breast
  GI50: < 10 nM
  TGI: 44800 nM
SK-OV-3 ovarian
  GI50: < 10 nM
  TGI: < 10 nM
U251 CNS
  GI50: < 10 nM
  TGI: 11500 nM
UACC-62 melanoma
  GI50: < 10 nM
  TGI: 13000 nM
OVCAR-8 ovarian
  GI50: < 10 nM
  TGI: 15400 nM
SN12C renal
  GI50: < 10 nM
  TGI: 22000 nM
HCC-2998 colon
  GI50: < 10 nM
  TGI: 11400 nM
IGROV1 ovarian
  GI50: < 10 nM
  TGI: 23700 nM
DU-145 prostate
  GI50: < 10 nM
  TGI: > 100000 nM
SK-MEL-2 melanoma
  GI50: < 10 nM
  TGI: 26800 nM
SF-539 CNS
  GI50: < 10 nM
  TGI: < 10 nM
SNB-75 CNS
  GI50: < 10 nM
  TGI: 26100 nM
A549 NSCLC
  GI50: < 10 nM
  TGI: 19500 nM
ACHN renal
  GI50: < 10 nM
  TGI: 21700 nM
KM12 colon
  GI50: < 10 nM
  TGI: 11800 nM
SK-MEL-5 melanoma
  GI50: < 10 nM
  TGI: < 10 nM
SW-620 colon
  GI50: < 10 nM
  TGI: 14500 nM
MALME-3M melanoma
  GI50: < 10 nM
  TGI: 33900 nM
OVCAR-5 ovarian
  GI50: 242 nM
  TGI: 38800 nM
MOLT-4 leukemia
  GI50: < 10 nM
  TGI: > 100000 nM
HOP-62 NSCLC
  GI50: < 10 nM
  TGI: 10800 nM
HS 578T breast
  GI50: < 10 nM
  TGI: 22300 nM
A498 renal
  GI50: < 10 nM
  TGI: < 10 nM
T-47D breast
  GI50: 3590 nM
  TGI: 21300 nM
SK-MEL-28 melanoma
  GI50: 1620 nM
  TGI: 21700 nM
NCI/ADR-RES ovarian
  GI50: < 10 nM
  TGI: < 10 nM
SF-268 CNS
  GI50: < 10 nM
  TGI: 26800 nM
SF-295 CNS
  GI50: < 10 nM
  TGI: 3220 nM
HT29 colon
  GI50: < 10 nM
  TGI: 10100 nM
SNB-19 CNS
  GI50: < 10 nM
  TGI: 46200 nM
OVCAR-3 ovarian
  GI50: < 10 nM
  TGI: 14700 nM
UO-31 renal
  GI50: < 10 nM
  TGI: 17300 nM
786-0 renal
  GI50: < 10 nM
  TGI: 11500 nM
CAKI-1 renal
  GI50: < 10 nM
  TGI: 24800 nM
NCI-H522 lung
  GI50: < 10 nM
  TGI: < 10 nM
PC-3 prostate
  GI50: < 10 nM
  TGI: 17800 nM
LOX IMVI melanoma
  GI50: < 10 nM
  TGI: 11800 nM
HCT-15 colon
  GI50: < 10 nM
  TGI: 11800 nM
HOP-92 NSCLC
  GI50: < 10 nM
  TGI: 28500 nM
